# Source: patent US9880171B2, “iASPP phosphorylation and metastatic potential” (LUDWIG INSTITUTE FOR CANCER RESEARCH LTD., priority 2012, dated 2018)
# Substitutions are numbered along the chain they refer to. In names and notes the source's numbering stands.
# B1: iASPP(1-240): purified recombinant N-terminal iASPP fragment, amino acids 1-240 of SEQ ID NO: 2, GST tag (protein, listed as Homo sapiens)
# chain: MDSEAFQSARDFLDMNFQSLAMKHMDLKQMELDTAAAKVDELTKQLESLWSDSPAPPGPQAGPPSRPPRYSSSSIPEPFGSRGSPRKAATDGADTPFGRSESAPTLHPYSPLSPKGRPSSPRTPLYLQPDAYGSLDRATSPRPRAFDGAGSSLGRAPSPRPGPGPLRQQGPPTPFDFLGRAGSPRGSPLAEGPQAFFPERGPSPRPPATAYDAPASAFGSSLLGSGGSAFAPPLRAQDDL
# modifications: GST tag
# B2: iASPP(1-240)S84D/S113D: iASPP phosphor-mimic mutant of the N-terminal fragment 1-240 (protein, listed as Homo sapiens)
# chain: B1 chain with S84D, S113D
# Legend:
# Assay type in all cases: cell-based, human
# [1] = test system: slow-migrating iASPP in H1299 cells; experiment: induction of slow-migrating iASPP by chemotherapeutic agents in H1299 cells (WB); conditions: H1299, overnight treatment (oxidative stress inducers 1-3 h; EDTA 4 mM 1 hour), antibody LX49.3
# Procedure: FIG. 3. […] H1299 cells were treated overnight with the indicated concentrations of mitosis-arrest drugs nocodazole, colchicine and taxol, DNA damaging drugs, or oxidative stress inducers (1-3 h). Total lysate was prepared in UREA buffer, and iASPP expression patterns were determined using antibody LX49.3. […] Mitotic-arrest drugs were applied to H1299 cells to induce iASPP mobility shift. Floating and adherent cells were collected, and iASPP expression pattern was determined by western blotting (WB). C. […] Left panel, cells in mitosis (floating) and interphase (adherent) were collected by mitotic shake-off, and iASPP expression pattern was determined by WB. Right panel, H1299 cells after Taxol treatment, or mitotic shake-off were immunofluorescence stained using antibody LX49.3. In mitotic shake-off experiment, mitotic shake-off cells were cytospun to slides; the remaining adherent cells after shaking were scraped off and used as interphase control. […] Melanoma cells were treated with nocodazole overnight and iASPP expression patterns from total cell lysate was determined by WB.
# FIG. 4. A. Floating and adherent H1299 cells separately collected by mitotic shake-off (FIG. 3C) were stained with propidium iodide (PI), followed by FACS analysis. […] B. H1299 cells were subjected to treatment of 10 μM nocodazole for 24 hours (Nocodazole), on ice for 30 minutes (Cold shock), or 4 mM EDTA for 1 hour (EDTA). Left panel: iASPP expression pattern was analysed by immunoblotting. Right panel: phase contrast images were taken before collection of the cells for WB analysis. Bar=20 μm.
# For WB, cells were lysed in buffer containing 8 M urea, 1 M thiourea, 0.5% CHAPS, 50 mM DTT, and 24 mM spermine. A total of 40 μg of protein extract was loaded per lane into SDS-polyacrylamide gels. Gels were transferred onto nitrocellulose membrane (Protran) and the resulting blots incubated first with primary antibody overnight at 4° C. and then with the appropriate secondary horseradish peroxidize-conjugated antibody (Dako). The results were visualized by enhanced chemiluminescent detection (Amersham Biosciences) using X-ray film (Fujifilm). For cell lysate immunoprecipitation, cells were dissolved in NP40 buffer (50 mM Tris-HCl pH 8.0, 150 mM NaCl, 1% NP-40) with protease inhibitor cocktail mix (Roche Diagnostics). Cells were further thoroughly broken by ultrasonication, followed by spinning for 1 hour. Achieved suspension was adjusted to 1-2 mg/ml using NP40 buffer and incubated with 20 μl nickel beads, glutathione beads, or protein A beads (with 2 μg required antibody) for 2 h at room temperature. The beads were washed for four times with NP40 buffer, boiled for 5 min in Laemmli sample buffer, and applied for Western blotting. For pure protein immunoprecipitation, 5-10 μg purified proteins were mixed in NP40 buffer with 1 mg/ml BSA for 2 h at room temperature.
# As mitotic cells often detach from the tissue culture dish, floating cells were separated from adherent cells after the treatment of Nocodozole, Taxol and Colchicine.
# [2] = test system: iASPP modification in H1299 cells; experiment: nocodazole-induced iASPP modification in H1299 cells, G2/M kinase inhibitor panel (immunoblotting); conditions: 2-10 μM, 10 μM nocodazole overnight
# Procedure: FIG. 12. […] FIG. 12A. […] FIG. 12B. […] FIG. 12C.
# FIG. 13. FIG. 13A. […] FIG. 13B.
# FIG. 20. […] FIG. 20A. […] Bar=20 μm.
# For WB, cells were lysed in buffer containing 8 M urea, 1 M thiourea, 0.5% CHAPS, 50 mM DTT, and 24 mM spermine. A total of 40 μg of protein extract was loaded per lane into SDS-polyacrylamide gels. Gels were transferred onto nitrocellulose membrane (Protran) and the resulting blots incubated first with primary antibody overnight at 4° C. and then with the appropriate secondary horseradish peroxidize-conjugated antibody (Dako). The results were visualized by enhanced chemiluminescent detection (Amersham Biosciences) using X-ray film (Fujifilm).
# [3] = test system: nuclear entry of FITC labeled iASPP(625-828); experiment: in vitro nuclear import assay in digitonin permeabilized H1299 cells; conditions: for nuclear entry of FITC labeled iASPP(625-828): pre-incubation with 0-1 mg/ml non-labeled protein, 2 hours
# Procedure: FIG. 7. S84/S113 phosphorylation of iASPP prevents N- and C-terminal self-interaction and promotes iASPP nuclear localization. A. N- and C-terminal iASPP self-interacts, and iASPP(1-240 of SEQ ID NO: 2)S84D/S113D fails to interact with C-terminal iASPP in vitro. Upper panel: 10 μg/ml purified GST-tagged iASPP (1-240 of SEQ ID NO: 2) or iASPP (249-482 of SEQ ID NO: 2) were incubated with 10 μg/ml purified 6*His-tagged iASPP (625-828 of SEQ ID NO: 2) or ASPP2 (905-1128 of SEQ ID NO: 2) in NP40 buffer for 2 hours. iASPP (1-240 of SEQ ID NO: 2) and iASPP (249-482 of SEQ ID NO: 2) were pulled down by glutathione beads. Bound iASPP (625-828 of SEQ ID NO: 2) and ASPP2 (905-1128 of SEQ ID NO: 2) were determined using anti-His antibodies. Lower panel: 10 μg/ml purified iASPP (1-240 of SEQ ID BO: 2)-GST mutants were incubated with 10 μg/ml mixture of iASPP (625-828 of SEQ ID NO: 2)-His and ASPP2 (905-1128 of SEQ ID NO: 2)-His in NP40 buffer for 2 hours. Interaction was determined as above. […] Cells were suspended in NP40 buffer, and interactions between overexpressed iASPP(1-478 of SEQ ID NO: 2)-V5 and purified iASPP(625-828 of SEQ ID NO: 2)-His were determined by co-immunoprecipitation. […] Cells were suspended in NP40 buffer, and interaction between endogenous iASPP and iASPP (1-240 of SEQ ID NO: 2)-GST was determined by co-immunoprecipitation. […] Upper right panel: H1299 cells were treated with or without nocodazole and iASPP mobility shift were determined in non-denaturing or denaturing WB. […] After 4 washes, the interaction between them was determined by co-immunoprecipitation using anti-GST and anti-V5 antibodies. […] Nuclear iASPP (625-828 of SEQ ID NO: 2)-FITC was determined by direct FITC fluorescence. iASPP(1-240)S84D/S113D and ASPP2(905-1128 of SEQ ID NO: 2) were used as control. […]
# Purified proteins were labeled with FITC according to protocol from protein label kit (F-6434, Invitrogen). […] The cellular localization of the substrate was determined by direct fluorescence observation under confocol microscope. […]
Molecule,induction of slow-migrating iASPP isoform [1],other results
O=C(O)CN(CCN(CC(=O)O)CC(=O)O)CC(=O)O [EDTA],failed to affect iASPP mobility,–
CN[C@@H]1C[C@H]2O[C@@](C)([C@@H]1OC)n1c3ccccc3c3c4c(c5c6ccccc6n2c5c31)C(=O)NC4 [Staurosporine],did not result in increased slow-migrating iASPP isoform expression,–
CC[C@H](CO)Nc1nc(NCc2ccccc2)c2ncn(C(C)C)c2n1 [roscovitine],–,prevention of nocodazole-induced iASPP modification ([2]; panel of 15 G2/M kinase inhibitors): only weakly affected iASPP modification; prevention of nocodazole-induced iASPP modification ([2]; panel of 18 G2/M kinase inhibitors): failed to affect iASPP modification
COc1cc2c(c(OC)c1OC)-c1ccc(OC)c(=O)cc1[C@@H](NC(C)=O)CC2 [Colchicine],induced,–
OO [hydrogen peroxide],did not result in increased slow-migrating iASPP isoform expression,–
N.N.[Cl][Pt][Cl] [Cisplatin],did not result in increased slow-migrating iASPP isoform expression,–
COc1cccc2c1C(=O)c1c(O)c3c(c(O)c1C2=O)C[C@@](O)(C(=O)CO)C[C@@H]3O[C@H]1C[C@H](N)[C@H](O)[C@H](C)O1 [Doxorubicin],did not result in increased slow-migrating iASPP isoform expression,–
CC(=O)O[C@H]1C(=O)[C@@]2(C)[C@H]([C@H](OC(=O)c3ccccc3)[C@]3(O)C[C@H](OC(=O)[C@H](O)[C@@H](NC(=O)c4ccccc4)c4ccccc4)C(C)=C1C3(C)C)[C@]1(OC(C)=O)CO[C@@H]1C[C@@H]2O [Taxol],induced,–
B1,–,nuclear entry of FITC labeled iASPP(625-828) [3]: effectively prevented the nuclear entry; nuclear entry of ASPP2(905-1128) ([3]; pre-incubation with non-labeled protein): no impact on the nuclear entry of ASPP2(905-1128)
B2,–,nuclear entry of FITC labeled iASPP(625-828) [3]: failed to have any impact
